Assay results published in US20020132853A1, “Capsaicin receptor ligands” (priority 2000, published 2002).

Target: T1, human capsaicin receptor (Homo sapiens, UniProt Q8NER1)
T1 construct: expression consrtuct encoding the full length human capsaicin receptor; expressed in transfected cells
Experiment: Antagonist assay for Capsaicin receptor mediated calcium mobilization
Format: cell-based
Conditions: Table III, read-out: EC50 (the source's name)
Method in brief: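 Cells expressing human capsaicin receptor, loaded with Fluo-3 AM, were preincubated 0.5–6 h at room temperature in the dark with test compound at 1–5 μM final in KRH buffer (pH 7.4, 2 mM CaCl2, probenecid). Capsaicin at its EC50 was then added via FLIPR; IC50 is the antagonist concentration halving the calcium signal.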

T1 sequence (Q8NER1 whole entry): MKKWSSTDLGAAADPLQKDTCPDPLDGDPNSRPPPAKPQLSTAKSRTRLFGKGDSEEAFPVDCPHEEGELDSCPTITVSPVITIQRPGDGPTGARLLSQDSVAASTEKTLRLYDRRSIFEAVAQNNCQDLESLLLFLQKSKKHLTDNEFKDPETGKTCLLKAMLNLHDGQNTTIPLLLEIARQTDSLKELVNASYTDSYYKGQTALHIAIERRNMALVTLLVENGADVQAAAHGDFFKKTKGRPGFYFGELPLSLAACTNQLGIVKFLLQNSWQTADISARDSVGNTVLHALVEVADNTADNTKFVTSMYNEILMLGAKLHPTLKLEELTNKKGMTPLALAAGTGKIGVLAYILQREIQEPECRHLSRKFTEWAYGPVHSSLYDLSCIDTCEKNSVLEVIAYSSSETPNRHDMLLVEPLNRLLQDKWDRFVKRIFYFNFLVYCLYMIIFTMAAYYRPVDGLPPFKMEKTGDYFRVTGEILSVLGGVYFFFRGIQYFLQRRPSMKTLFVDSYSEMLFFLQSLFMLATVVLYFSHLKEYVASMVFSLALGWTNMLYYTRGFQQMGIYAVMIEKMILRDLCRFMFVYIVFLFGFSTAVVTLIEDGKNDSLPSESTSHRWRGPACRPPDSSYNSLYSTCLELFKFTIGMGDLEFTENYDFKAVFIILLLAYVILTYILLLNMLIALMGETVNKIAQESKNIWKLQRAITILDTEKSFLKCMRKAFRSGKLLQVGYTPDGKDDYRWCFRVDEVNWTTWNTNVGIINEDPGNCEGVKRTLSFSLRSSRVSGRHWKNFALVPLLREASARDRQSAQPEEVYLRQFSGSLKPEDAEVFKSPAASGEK

IC50 | SMILES
< 1000 nM | C[C@@H]1CN(c2ncccc2N(C)C)CCN1C(=O)Nc1ccc(C(C)(C)C)cc1 [Compound 43, (2R)-N-(4-tert-butylphenyl)-4-[3-(dimethylamino)pyridin-2-yl]-2-methylpiperazine-1-carboxamide]
< 1000 nM | C[C@H]1CN(c2ncccc2Cl)CCN1C(=O)Nc1ccc(C(F)(F)F)cc1 [Compound 23, (2S)-4-(3-chloropyridin-2-yl)-N-(4-trifluoromethylphenyl)-2-methylpiperazine-1-carboxamide]
< 1000 nM | CCC1CN(c2ncccc2C(F)(F)F)CCN1C(=O)Nc1ccc(C(F)(F)F)cc1 (centres unmarked) [Compound 62, 2-ethyl-N-[4-(trifluoromethyl)phenyl]-4-[3-(trifluoromethyl)pyridin-2-yl]piperazine-1-carboxamide]
< 1000 nM | COCC(C)(C)c1ccc(NC(=O)N2CCN(c3ncccc3Cl)C[C@H]2C)cc1 [Compound 54, (2R)-4-(3-chloropyridin-2-yl)-N-[4-(2-methoxy-1,1-dimethylethyl)phenyl]-2-methylpiperazine-1-carboxamide]
< 1000 nM | Cc1nc(-c2ccc(NC(=O)N3CCN(c4ncccc4Cl)C[C@H]3C)cc2)cs1 [Compound 52, (2R)-4-(3-chloropyridin-2-yl)-2-methyl-N-[4-(2-methyl-1,3-thiazol-4-yl)phenyl]piperazine-1-carboxamide]
< 1000 nM | Cc1cccc(N2CCN(C(=O)Nc3ccc(C(C)(C)C)cc3)[C@H](C)C2)n1 [Compound 86, (2R)-N-(4-tert-butylphenyl)-2-methyl-4-(6-methylpyridin-2-yl)piperazine-1-carboxamide]
< 1000 nM | CC(C)C1CN(c2ncccc2C(F)(F)F)CCN1C(=O)Nc1ccc(C(C)(C)C)cc1 (centres unmarked) [Compound 72, N-(4-tert-butylphenyl)-2-isopropylk-4-[3-(trifluoromethyl)pyridin-2-yl]piperazine-1-carboxamide]
< 1000 nM | C[C@@H]1CN(c2ncccc2Cl)CCN1C(=O)Nc1ccc(C(F)(F)F)cc1 [Compound 20, (2R)-4-(3-chloropyridin-2-yl)-2-methyl-N-[4-(trifluoromethyl)phenyl]piperazine-1-carboxamide]
< 1000 nM | CC(C)c1ccc(NC(=O)N2CCN(c3ncccc3Cl)C[C@H]2C)cc1 [Compound 22, (2R)-4-(3-chloropyridin-2-yl)-N-(4-isopropylphenyl)-2-methylpiperazine-1-carboxamide]
< 1000 nM | CC(C)c1ccc(NC(=O)N2CCN(c3ncccc3F)C[C@H]2C)cc1 [Compound 77, (2R)-4-(3-fluoropyridin-2-yl)-N-(4-isopropylphenyl)-2-methylpiperazine-1-carboxamide]
< 1000 nM | CCC1CN(c2ncccc2Cl)CCN1C(=O)Nc1ccc(C(F)(F)F)cc1 (centres unmarked) [Compound 59, 4-(3-chloropyridin-2-yl)-2-ethyl-N-[4-(trifluoromethyl)phenyl]piperazine-1-carboxamide]
< 1000 nM | CC(C)C1CN(c2ncccc2Cl)CCN1C(=O)Nc1ccc(C(C)(C)C)cc1 (centres unmarked) [Compound 69, N-(4-tert-butylphenyl)-4-(3-chloropyridin-2-yl)-2-isopropylpiperazine-1-carboxamide]
< 1000 nM | C[C@@H]1CN(c2ncccc2C(F)(F)F)CCN1C(=O)Nc1ccc(C2CCCCC2)cc1 [Compound 34, (2R)-N-(4-cyclohexylphenyl)-2-methyl-4-[3-(trifluoromethyl)pyridin-2-yl]piperazine-1-carboxamide]
< 1000 nM | C[C@@H]1CN(c2ncccc2Cl)CCN1C(=O)Nc1ccc(C2(O)CCOCC2)cc1 [Compound 50, (2R)-4-(3-chloropyridin-2-yl)-N-[4-(4-hydroxytetrahydro-2H-pyran-4-yl)phenyl]-2-methylpiperazine-1-carboxamide]

Same assay, conditions: Table IV, read-out: EC50 (the source's name)

IC50 | SMILES
< 1000 nM | O=C(Nc1ccc(C(F)(F)F)cn1)N1CCN(c2ncccc2Cl)CC1 [Compound 93, 4-(3-chloropyridin-2-yl)-N[5-(trifluoromethyl)pyridin-2-yl]piperazine-1-carboxamide]
< 1000 nM | CC(C)C1CCC(NC(=O)N2CCN(c3ncccc3C(F)(F)F)C[C@H]2C)CC1 (stereo partly drawn) [Compound 101, (2R)-N-(4-isopropylcyclohexyl)-2-methyl-4-[3-(trifluoromethyl)pyridin-2-yl]piperazine-1-carboxamide]

Same assay, conditions: Table V, read-out: EC50 (the source's name)

IC50 | SMILES
< 1000 nM | C[C@@H]1CN(c2ncccc2C(F)(F)F)CCN1C(=O)Nc1ccc(C(F)(C(F)(F)F)C(F)(F)F)cc1 [Compound 163, (2R)-2-methyl-N-{4-[1,2,2,2-tetrafluoro-1-(trifluoromethyl)ethyl]phenyl}-4-[3-(trifluoromethyl)pyridin-2-yl]piperazine-1-carboxamide]
< 1000 nM | C[C@@H]1CN(c2ncccc2Cl)CCN1C(=O)Nc1ccc(C(C#N)c2ccccc2)cc1 (stereo partly drawn) [Compound 120, (2R)-4-(3-chloropyridin-2-yl)-N-[4-[cyano(phenyl)methyl]phenyl]-2-methylpiperazine-1-carboxamide]
< 1000 nM | COc1cccc(NC(=O)N2CCN(c3ncccc3C(F)(F)F)CC2)c1 [Compound 113, N-(3-methoxyphenyl)-4-[3-(trifluoromethyl)pyridin-2-yl]piperazine-1-carboxamide]
< 1000 nM | CC(c1ccc(NC(=O)N2CCN(c3ncccc3C(F)(F)F)C[C@H]2C)cc1)C(F)(F)F (stereo partly drawn) [Compound 129, (2R)-2-methyl-N-[4-(2,2,2-trifluoro-1-methylethyl)phenyl]-4-[3-(trifluoromethyl)pyridin-2-yl]piperazine-1-carboxamide]
< 1000 nM | C=C(c1ccc(NC(=O)N2CCN(c3ncccc3Cl)C[C@H]2C)cc1)C(F)(F)F [Compound 125, (2R)-4-(3-chloropyridin-2-yl)-2-methyl-N-{4-[1-(trifluoromethyl)vinyl]phenyl]piperazine-1-carboxamide]
< 1000 nM | C[C@@H]1CN(c2ncccc2Cl)CCN1C(=O)Nc1ccc(C(C(F)(F)F)(C(F)(F)F)C(F)(F)F)cc1 [Compound 148, *2R)-4-(3-chloropyridin-2-yl)-2-methyl_n_{4-[2,2,2-trifluoro-1,1-bis(trifluoromethyl)-ethyl]phenyl}piperazine-1-carboxamide]
< 1000 nM | Cc1cc(NC(=O)N2CCN(c3ncccc3F)C[C@H]2C)ccc1C(F)(F)F [Compound 122, (2R)-4-(3-fluoropyridin-2-yl)-2-methyl-N-[3-methyl-4-(trifluoromethyl)phenyl]piperazine-1-carboxamide]
< 1000 nM | C[C@@H]1CN(c2ncccc2Cl)CCN1C(=O)Nc1ccc(C(=O)c2ccccc2)cc1 [Compound 140, (2R)-N-(4-benzoylphenyl)-4-(3-chloropyridin-2-yl)-2-methylpiperazine-1-carboxamide]
< 1000 nM | C[C@@H]1CN(c2ncccc2F)CCN1C(=O)Nc1cccc(I)c1 [Compound 151, (2R)-4-(3-fluoropyridin-2-yl)-N-(3-iodophenyl)-2-methylpiperazine-1-carboxamide]
< 1000 nM | C[C@@H]1CN(c2ncccc2Cl)CCN1C(=O)Nc1ccc(C(F)(C(F)(F)F)C(F)(F)F)cc1 [Compound 162, (2R)-4-(3-chloropyridin-2-yl)-2-methyl-N-{4-[1,2,2,2-tetrafluoro-1-(trifluoromethyl)ethyl]phenyl}piperazine-1-carboxamide]

Same assay, conditions: Table VI, read-out: EC50 (the source's name)

IC50 | SMILES
< 1000 nM | C[C@@H]1CN(c2ncccc2Cl)CCN1C(=O)Oc1ccc(C(C)(C)C)cc1 [Compound 173]
< 1000 nM | CCCCc1ccc(NC(=S)N2CCN(c3ncccc3Cl)C[C@H]2C)cc1 [Compound 167]
< 1000 nM | CC(C)c1ccc(NC(=S)N2CCN(c3ncccc3Cl)C[C@H]2C)cc1 [Compound 169]
